Results taken from paper PMC7531004, “Discovery of gramicidin A analogues with altered activities by multidimensional screening of a one-bead-one-compound library” (Nature Communications, 2020).
Where a SMILES comes first, the peptide text is derived from it. [ ]: non-standard residue; d: D form. The star is where a group is joined. NHCH2CH2OH = OCCN*; For = O=C*

Columns and labels:
[1] = H+/Na+ transport assay of bead-derived peptides (one-point); assay type: biochemical; set-up: key: relative activity; mean of two control wells = 1.00; conditions: bead-derived peptide solution, EYPC/EYPG LUVs;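 also: relative to parent gramicidin A activity set to 1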
Method in brief: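 Pyranine (1.0 mM)-loaded LUVs containing egg yolk phosphatidylglycerol were prepared by film hydration, sonication and extrusion, then mixed with diluted bead-derived peptide in 96-well format and vortexed 30 min at room temperature. Fluorescence was normalized between untreated LUVs (0%) and Triton X-100 lysis (100%).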

[2] = cell viability/%
Method in brief: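 Peptide stocks diluted 250× in growth medium; P388 cells 1 × 10^4 cells/mL final; 37 °C, 5% CO2, 92 h. WST-1 + 1-methoxy PMS, 4 h, A415. Output: % viability.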

[3] = test system: Streptococcus pyogenes SSI-9; assay: Antibacterial activity assay of bead-derived peptides (three concentrations); assay type: cell-based; set-up: key: +++: inhibition by the 640-fold diluted peptide solution; ++: inhibition by the 160-fold diluted solution; +: inhibition by the 40-fold diluted solution; -: no inhibition; conditions: S. pyogenes, bead-derived peptide solution, three concentrations
Method in brief: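 Growth inhibition scored visually as precipitated bacteria after 37 °C, 18 h incubation. Streptococcus pyogenes SSI-9 inoculum of 2 × 10^5 CFU in Ca2+/Mg2+-adjusted Mueller Hinton broth plus 5% laked horse blood; peptides tested at three levels: stock, 4-fold and 16-fold DMSO dilutions.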

With `CC(C)C[C@@H](NC(=O)[C@H](C)NC(=O)[C@H](NC(=O)[C@H](C)NC(=O)CNC(=O)[C@@H](NC=O)C(C)C)C(C)C)C(=O)N[C@H](C(=O)N[C@@H](C(=O)N[C@@H](Cc1c[nH]c2ccccc12)C(=O)N[C@@H](C(=O)N[C@@H](Cc1c[nH]c2ccccc12)C(=O)N[C@@H](C(=O)N[C@@H](Cc1c[nH]c2ccccc12)C(=O)N[C@@H](C(=O)N[C@@H](Cc1c[nH]c2ccccc12)C(=O)NCCO)C(C)C)C(C)C)C(C)C)C(C)C)C(C)C` [compound 7690] (For-VGA[dV]A[dL]V[dV]W[dV]W[dV]W[dV]W-NHCH2CH2OH) the “H+/Na+ transport activity normalized against the value of 1 (1.00)” value (shortened to “H+/Na+ transport activity normalized”) [1] was 1.03, the viability [2] was 100% and the antibacterial activity [3] was “-”.
With `CC(C)C[C@@H](NC(=O)[C@H](Cc1c[nH]c2ccccc12)NC(=O)[C@H](NC(=O)[C@H](Cc1c[nH]c2ccccc12)NC(=O)[C@@H](CC(C)C)NC(=O)[C@H](Cc1c[nH]c2ccccc12)NC(=O)[C@H](NC(=O)[C@@H](NC(=O)[C@H](NC(=O)[C@H](C)NC(=O)[C@H](NC(=O)[C@H](C)NC(=O)CNC(=O)[C@@H](NC=O)C(C)C)C(C)C)[C@H](C)O)C(C)C)C(C)C)C(C)C)C(=O)N[C@@H](Cc1c[nH]c2ccccc12)C(=O)NCCO` [compound 7912] (For-VGA[dV]A[dT]V[dV]W[dL]W[dV]W[dL]W-NHCH2CH2OH) the “H+/Na+ transport activity normalized” value [1] was 1.12, the viability [2] was 100% and the antibacterial activity [3] was “-”.
With `CNC(=O)C[C@@H](NC(=O)[C@H](C)NC(=O)CNC(=O)[C@@H](NC=O)C(C)C)C(=O)N[C@@H](C)C(=O)N[C@H](CC(C)C)C(=O)N[C@H](C(=O)N[C@@H](C(=O)N[C@@H](Cc1c[nH]c2ccccc12)C(=O)N[C@H](CC(C)C)C(=O)N[C@@H](Cc1c[nH]c2ccccc12)C(=O)N[C@H](CC(C)C)C(=O)N[C@@H](Cc1c[nH]c2ccccc12)C(=O)N[C@H](CC(C)C)C(=O)N[C@@H](Cc1c[nH]c2ccccc12)C(=O)NCCO)C(C)C)C(C)C` [compound 8038] (For-VGA[dD](NHMe)A[dL]V[dV]W[dL]W[dL]W[dL]W-NHCH2CH2OH) the “H+/Na+ transport activity normalized” value [1] was 1.04, the viability [2] was 100% and the antibacterial activity [3] was “-”.
For `CC(C)C[C@@H](NC(=O)[C@H](C)NC(=O)CNC(=O)[C@@H](NC=O)C(C)C)C(=O)N[C@@H](C)C(=O)N[C@H](CC(C)C)C(=O)N[C@H](C(=O)N[C@@H](C(=O)N[C@@H](Cc1c[nH]c2ccccc12)C(=O)N[C@@H](C(=O)N[C@@H](Cc1c[nH]c2ccccc12)C(=O)N[C@H](CC(C)C)C(=O)N[C@@H](Cc1c[nH]c2ccccc12)C(=O)N[C@@H](C(=O)N[C@@H](Cc1c[nH]c2ccccc12)C(=O)NCCO)C(C)C)C(C)C)[C@H](C)O)C(C)C` [compound 8043] (For-VGA[dL]A[dL]V[dT]W[dV]W[dL]W[dV]W-NHCH2CH2OH), the “H+/Na+ transport activity normalized” value [1] was 1.04, the viability [2] was 100% and the antibacterial activity [3] was “-”.
For `CC(C)C[C@@H](NC(=O)[C@H](C)NC(=O)CNC(=O)[C@@H](NC=O)C(C)C)C(=O)N[C@@H](C)C(=O)N[C@@H](C(=O)N[C@H](C(=O)N[C@H](CC(C)C)C(=O)N[C@@H](Cc1c[nH]c2ccccc12)C(=O)N[C@@H](C(=O)N[C@@H](Cc1c[nH]c2ccccc12)C(=O)N[C@@H](C(=O)N[C@@H](Cc1c[nH]c2ccccc12)C(=O)N[C@H](CC(C)C)C(=O)N[C@@H](Cc1c[nH]c2ccccc12)C(=O)NCCO)C(C)C)C(C)C)C(C)C)C(C)C` [compound 8051] (For-VGA[dL]A[dV]V[dL]W[dV]W[dV]W[dL]W-NHCH2CH2OH), the “H+/Na+ transport activity normalized” value [1] was 1.13, the viability [2] was 16.8% and the antibacterial activity [3] was “+”.
With `CC(C)C[C@@H](NC(=O)[C@H](C)NC(=O)CNC(=O)[C@@H](NC=O)C(C)C)C(=O)N[C@@H](C)C(=O)N[C@H](CC(C)C)C(=O)N[C@H](C(=O)N[C@@H](C(=O)N[C@@H](Cc1c[nH]c2ccccc12)C(=O)N[C@H](CC(C)C)C(=O)N[C@@H](Cc1c[nH]c2ccccc12)C(=O)N[C@@H](C(=O)N[C@@H](Cc1c[nH]c2ccccc12)C(=O)N[C@@H](C(=O)N[C@@H](Cc1c[nH]c2ccccc12)C(=O)NCCO)C(C)C)C(C)C)[C@H](C)O)C(C)C` [compound 8130] (For-VGA[dL]A[dL]V[dT]W[dL]W[dV]W[dV]W-NHCH2CH2OH) the “H+/Na+ transport activity normalized” value [1] was 1.17, the viability [2] was 100% and the antibacterial activity [3] was “-”.
For `CC(C)C[C@@H](NC(=O)[C@H](Cc1c[nH]c2ccccc12)NC(=O)[C@H](NC(=O)[C@@H](NC(=O)[C@H](NC(=O)[C@H](C)NC(=O)[C@H](NC(=O)[C@H](C)NC(=O)CNC(=O)[C@@H](NC=O)C(C)C)C(C)C)[C@H](C)O)C(C)C)C(C)C)C(=O)N[C@@H](Cc1c[nH]c2ccccc12)C(=O)N[C@H](CC(C)C)C(=O)N[C@@H](Cc1c[nH]c2ccccc12)C(=O)N[C@@H](C(=O)N[C@@H](Cc1c[nH]c2ccccc12)C(=O)NCCO)C(C)C` [compound 8141] (For-VGA[dV]A[dT]V[dV]W[dL]W[dL]W[dV]W-NHCH2CH2OH), the “H+/Na+ transport activity normalized” value [1] was 1.03, the viability [2] was 100% and the antibacterial activity [3] was “-”.
In the case of `CC(C)C[C@@H](NC(=O)[C@H](C)NC(=O)CNC(=O)[C@@H](NC=O)C(C)C)C(=O)N[C@@H](C)C(=O)N[C@@H](C(=O)N[C@H](C(=O)N[C@H](CC(C)C)C(=O)N[C@@H](Cc1c[nH]c2ccccc12)C(=O)N[C@H](CC(C)C)C(=O)N[C@@H](Cc1c[nH]c2ccccc12)C(=O)N[C@H](CC(C)C)C(=O)N[C@@H](Cc1c[nH]c2ccccc12)C(=O)N[C@@H](C(=O)N[C@@H](Cc1c[nH]c2ccccc12)C(=O)NCCO)C(C)C)C(C)C)[C@H](C)O` [compound 8288] (For-VGA[dL]A[dT]V[dL]W[dL]W[dL]W[dV]W-NHCH2CH2OH), the “H+/Na+ transport activity normalized” value [1] is reported as 1.02, the viability [2] is reported as 47.4% and the antibacterial activity [3] is reported as “-”.
For `CC(C)C[C@@H](NC(=O)[C@H](C)NC(=O)CNC(=O)[C@@H](NC=O)C(C)C)C(=O)N[C@@H](C)C(=O)N[C@@H](C(=O)N[C@H](C(=O)N[C@H](CC(C)C)C(=O)N[C@@H](Cc1c[nH]c2ccccc12)C(=O)N[C@H](CC(C)C)C(=O)N[C@@H](Cc1c[nH]c2ccccc12)C(=O)N[C@H](CC(C)C)C(=O)N[C@@H](Cc1c[nH]c2ccccc12)C(=O)N[C@H](CC(C)C)C(=O)N[C@@H](Cc1c[nH]c2ccccc12)C(=O)NCCO)C(C)C)C(C)C` [compound 8397] (For-VGA[dL]A[dV]V[dL]W[dL]W[dL]W[dL]W-NHCH2CH2OH), the “H+/Na+ transport activity normalized” value [1] was 1.12, the viability [2] was 0% and the antibacterial activity [3] was “+”.
For `CC(C)C[C@@H](NC(=O)[C@H](C)NC(=O)[C@H](NC(=O)[C@H](C)NC(=O)CNC(=O)[C@@H](NC=O)C(C)C)C(C)C)C(=O)N[C@H](C(=O)N[C@@H](C(=O)N[C@@H](Cc1c[nH]c2ccccc12)C(=O)N[C@H](CC(C)C)C(=O)N[C@@H](Cc1c[nH]c2ccccc12)C(=O)N[C@@H](C(=O)N[C@@H](Cc1c[nH]c2ccccc12)C(=O)N[C@@H](C(=O)N[C@@H](Cc1c[nH]c2ccccc12)C(=O)NCCO)C(C)C)[C@H](C)O)C(C)C)C(C)C` [compound 8473] (For-VGA[dV]A[dL]V[dV]W[dL]W[dT]W[dV]W-NHCH2CH2OH), the “H+/Na+ transport activity normalized” value [1] was 1.01, the viability [2] was 53.6% and the antibacterial activity [3] was “-”.
For `CNC(=O)C[C@@H](NC(=O)[C@H](Cc1c[nH]c2ccccc12)NC(=O)[C@H](NC(=O)[C@H](Cc1c[nH]c2ccccc12)NC(=O)[C@@H](CC(C)C)NC(=O)[C@H](Cc1c[nH]c2ccccc12)NC(=O)[C@H](NC(=O)[C@@H](NC(=O)[C@@H](CC(C)C)NC(=O)[C@H](C)NC(=O)[C@@H](CC(C)C)NC(=O)[C@H](C)NC(=O)CNC(=O)[C@@H](NC=O)C(C)C)C(C)C)C(C)C)C(C)C)C(=O)N[C@@H](Cc1c[nH]c2ccccc12)C(=O)NCCO` [compound 8516] (For-VGA[dL]A[dL]V[dV]W[dL]W[dV]W[dD](NHMe)W-NHCH2CH2OH), the “H+/Na+ transport activity normalized” value [1] was 1.09, the viability [2] was 48.7% and the antibacterial activity [3] was “-”.
In the case of `CC(C)C[C@@H](NC(=O)[C@H](C)NC(=O)[C@H](NC(=O)[C@H](C)NC(=O)CNC(=O)[C@@H](NC=O)C(C)C)C(C)C)C(=O)N[C@H](C(=O)N[C@H](CC(C)C)C(=O)N[C@@H](Cc1c[nH]c2ccccc12)C(=O)N[C@@H](C(=O)N[C@@H](Cc1c[nH]c2ccccc12)C(=O)N[C@@H](C(=O)N[C@@H](Cc1c[nH]c2ccccc12)C(=O)N[C@@H](C(=O)N[C@@H](Cc1c[nH]c2ccccc12)C(=O)NCCO)C(C)C)C(C)C)[C@H](C)O)C(C)C` [compound 8554] (For-VGA[dV]A[dL]V[dL]W[dT]W[dV]W[dV]W-NHCH2CH2OH), the “H+/Na+ transport activity normalized” value [1] is reported as 1.03, the viability [2] is reported as 61.3% and the antibacterial activity [3] is reported as “-”.
With `CC(C)C[C@@H](NC(=O)[C@H](Cc1c[nH]c2ccccc12)NC(=O)[C@H](NC(=O)[C@H](Cc1c[nH]c2ccccc12)NC(=O)[C@@H](CC(C)C)NC(=O)[C@@H](NC(=O)[C@H](NC(=O)[C@H](C)NC(=O)[C@H](NC(=O)[C@H](C)NC(=O)CNC(=O)[C@@H](NC=O)C(C)C)C(C)C)C(C)C)C(C)C)C(C)C)C(=O)N[C@@H](Cc1c[nH]c2ccccc12)C(=O)N[C@@H](C(=O)N[C@@H](Cc1c[nH]c2ccccc12)C(=O)NCCO)[C@H](C)O` [compound 8580] (For-VGA[dV]A[dV]V[dL]W[dV]W[dL]W[dT]W-NHCH2CH2OH) the “H+/Na+ transport activity normalized” value [1] was 1.01, the viability [2] was 60.6% and the antibacterial activity [3] was “+”.
